Reference: US8742082B2, “Compositions and methods for influencing satiety, lipid metabolism, and fat utilization” (Nestec S.A., priority 2008, dated 2014)

Tested on: Leptin
Assay: Real-time PCR gene expression in peripheral tissues: leptin
Type: in vivo
Conditions: C57bl6j mice, high fat diet, 100 mg/kg/body weight in diet, 5 weeks
Method: The expression of 45 genes was measured by real-time PCR in peripheral tissues to identify genes that were differentially expressed in response to oral administration of oleoylethanolamide (OEA) or a non-hydrolysable OEA analog (KDS 5104), which affect satiety, lipid metabolism, fat utilization, food intake, and body fat mass.
Animals, diet, and experimental design. Adult male C57bl6j mice purchased at 8 weeks of age were individually housed and maintained ad libitum on high fat diet and water for 2 weeks. Seven mice were randomly allocated in 3 groups and fed with a high fat diet (lipids represented 50% of daily energy) for 2 weeks. For one kilogram, the composition of the high fat diet was: 235 g casein, 201 g saccharose, 3.5 g L-cystine, 85 g starch, 116 g maltodextrin, 60 g cellulose, 12 g vitamins mix (AIN-93M, UPAE, Jouy-en-Josas, France), 51.5 g mineral mix (AIN-93Vx, UPAE, Jouy-en-Josas, France), and 236 g lard. Then, either OEA or KDS 5104 was added to the diet at a concentration of 100 mg/kg/body weight. The mice were kept under treatment for 5 weeks.
Sampling. At the end of the experimental period, mice were sacrificed by blood drawing (cardiac puncture) after anesthesia with isoflurane. Plasma was obtained by centrifugation (1,000 g for 10 min at 4° C.). Mesenteric, epididymal, inguinal and peritoneal adipose depots, as well as liver, stomach, small intestine mucosa, pancreas, and gastrocnemian muscle were removed and frozen into liquid nitrogen. Plasma, urine, feces, and organ samples were kept at −80° C. until analysis.
RNA extraction and gene expression. Total RNA from liver, intestine mucous membrane, adipose tissues, gastrocnemian muscle, pancreas and stomach were extracted with TRIzol reagent (Invitrogen, Carlsbad, USA) according to the manufacturer's instruction. The RNA concentration was determined on nanodrop from the absorbance at 260 nm. Retro-transcription PCRs to synthesize cDNA were performed using an Applied Biosystem Thermal Cycler 2720 and Superscript II (Invitrogen, Carlsbad, USA) according to manufacturer's protocol. Real-time quantitative PCR (RT-qPCR) were performed on cDNA obtained as described above using a high through put system (Biomek 3000, Beckman & Coulter, Fullerton, USA) and a Lightcycler 480 (Roche/Hitachi, Basel, Switzerland) with SYBR Green Master mix+kit (Eurogentec, Philadelphia, USA). Primers for the selected genes were generated using online informatics assistance from the Lightcycler manufacturer (Roche). Databases used to identify the genes were (1) the NCBI database (GenBank) and (2) the IHOP (Information Hyperlinked over Protein) database (www.ihop-net.org/UniPub/iHOP/bng/). Values were expressed as ratio of RNA levels relative to control mice (diets with 0 mg of OEA/kg/body weight) using ΔΔ(Ct) (Livak K J & Schmittgen T D, 2001, Methods 25:402-8). Gene expression of the following genes was measured (abbreviation and GenBank Accession shown in parentheses).
Statistical analysis. […] Statistical analysis of physiological parameters and gene expression data was performed by one-way ANOVA on Statview software (SAS Institute, Cary, USA). Daily food intake was analyzed using two-way ANOVA on Statview software. Statistical significance was set up at the P<0.05 level, the P<0.01 level and the P<0.001 level. For statistical analysis of the gene expression data, values were calculated relative to 18S expression for each mouse and gene.

## CCCCCCCC/C=C\CCCCCCCC(=O)NCCO [OEA, N-oleoyl-ethanolamide]
Epidydimal adipose tissue
  leptin at ep, ratio of RNA levels relative to control mice: 1.22
Peritoneal adipose tissue
  leptin at per, ratio of RNA levels relative to control mice: 3.44
stomach
  leptin s, ratio of RNA levels relative to control mice: 1.41
